Results as given in article PMC7380166, “How to Study the Metabolism of New Psychoactive Substances for the Purpose of Toxicological Screenings—A Follow-Up Study Comparing Pooled Human Liver S9, HepaRG Cells, and Zebrafish Larvae” (Frontiers in Chemistry, 2020).

Legend:
HepaRG cells = assay: Incubations with HepaRG cells, metabolite identification by LC-HRMS/MS; format: in vitro ADME, human; conditions: for Absolute peak area, HepaRG [25 μM]: 25 μM parent NPS; for Absolute peak area, HepaRG [25 μM] / Absolute peak area, HepaRG [250 μM]: cell culture medium, one replicate of n = 3, n.d. = not detected; for Absolute peak area, HepaRG [250 μM]: 250 μM parent NPS
CYP2B6 = target: T1, CYP2B6 (Homo sapiens, UniProt P20813); assay: Monooxygenases activity screening, CYP2B6; format: in vitro ADME; set-up: key: +, detected; –: −, not detected; conditions: 25 μM 4F-MDMB-BINACA, 50 pmol/ml enzyme, 30 min, 37°C, duplicate
T1 construct: purchased Corning; host or cells: baculovirus-transfected insect cell microsomes (Supersomes)
T1 sequence (P20813 1-491): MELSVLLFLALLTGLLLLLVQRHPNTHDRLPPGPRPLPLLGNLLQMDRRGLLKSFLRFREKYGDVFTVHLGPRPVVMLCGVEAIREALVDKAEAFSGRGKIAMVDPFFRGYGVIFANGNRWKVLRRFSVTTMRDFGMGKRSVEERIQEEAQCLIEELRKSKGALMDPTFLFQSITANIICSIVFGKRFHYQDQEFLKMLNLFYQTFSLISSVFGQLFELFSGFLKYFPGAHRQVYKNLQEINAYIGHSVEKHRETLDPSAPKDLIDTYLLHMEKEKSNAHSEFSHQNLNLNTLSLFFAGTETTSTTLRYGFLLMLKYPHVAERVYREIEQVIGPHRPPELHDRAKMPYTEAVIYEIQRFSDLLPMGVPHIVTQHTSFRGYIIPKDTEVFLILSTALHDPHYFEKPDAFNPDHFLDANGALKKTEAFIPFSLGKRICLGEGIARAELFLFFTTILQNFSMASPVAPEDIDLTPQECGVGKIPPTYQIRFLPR
Method: (§1) According to an established protocol (Wagmann et al., [2016]), the final volume per reaction tube was 50 μl with a final 4F-MDMB-BINACA concentration of 25 μM and enzyme concentrations of 50 pmol/ml for CYP1A2, CYP2A6, CYP2B6, CYP2C8, CYP2C9, CYP2C19, CYP2D6, CYP2E1, CYP3A4, and CYP3A5, respectively, or 0.25 mg protein/ml for FMO3. Furthermore, the reaction mixture contained 90 mM phosphate buffer (pH 7.4), superoxide dismutase (200 U/ml), isocitrate (5 mM), MgCl2 (5 mM), isocitrate dehydrogenase (0.5 U/ml), and NADP^+ (1.2 mM). The phosphate buffer was replaced with Tris buffer (90 mM) for incubations with CYP2A6 and CYP2C9 according to the manufacturer's recommendation. All incubations were performed at 37°C for 30 min and terminated by adding 50 μl of ice-cold acetonitrile. Afterwards, the mixtures were centrifuged at 18,407 × g for 5 min, 70 μl of the supernatants was transferred into autosampler vials, and 1 μl was injected onto the LC-HRMS/MS system. Positive control incubations were performed with pHLM (1 mg microsomal protein/ml), and negative controls without enzyme were prepared to identify non-metabolically formed compounds. All incubations were done in duplicate.

CYP1A2 = target: T2, CYP1A2 (Homo sapiens, UniProt P05177); assay: Monooxygenases activity screening, CYP1A2; format: in vitro ADME; set-up: key: +, detected; –: −, not detected; conditions: 25 μM 4F-MDMB-BINACA, 50 pmol/ml enzyme, 30 min, 37°C, duplicate
T2 construct: purchased Corning; host or cells: baculovirus-transfected insect cell microsomes (Supersomes)
T2 sequence (P05177 1-516): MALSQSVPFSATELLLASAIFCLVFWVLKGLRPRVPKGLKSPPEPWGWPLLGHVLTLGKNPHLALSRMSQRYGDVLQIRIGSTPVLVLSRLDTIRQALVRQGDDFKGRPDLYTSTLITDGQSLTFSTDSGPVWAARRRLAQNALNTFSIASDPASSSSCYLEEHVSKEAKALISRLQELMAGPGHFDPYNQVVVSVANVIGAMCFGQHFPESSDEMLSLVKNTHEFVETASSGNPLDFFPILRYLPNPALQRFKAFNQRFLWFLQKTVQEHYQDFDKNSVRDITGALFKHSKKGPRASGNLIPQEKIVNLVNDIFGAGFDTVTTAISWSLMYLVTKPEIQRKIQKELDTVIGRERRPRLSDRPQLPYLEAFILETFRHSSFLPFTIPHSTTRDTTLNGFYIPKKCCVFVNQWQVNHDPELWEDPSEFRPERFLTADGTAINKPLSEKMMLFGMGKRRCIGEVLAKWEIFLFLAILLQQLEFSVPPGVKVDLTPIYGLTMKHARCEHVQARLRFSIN
Method: as §1

CYP2A6 = target: T3, CYP2A6 (Homo sapiens, UniProt P11509); assay: Monooxygenases activity screening, CYP2A6; format: in vitro ADME; set-up: key: +, detected; –: −, not detected; conditions: 25 μM 4F-MDMB-BINACA, 50 pmol/ml enzyme, 30 min, 37°C, duplicate
T3 construct: purchased Corning; host or cells: baculovirus-transfected insect cell microsomes (Supersomes)
T3 sequence (P11509 1-494): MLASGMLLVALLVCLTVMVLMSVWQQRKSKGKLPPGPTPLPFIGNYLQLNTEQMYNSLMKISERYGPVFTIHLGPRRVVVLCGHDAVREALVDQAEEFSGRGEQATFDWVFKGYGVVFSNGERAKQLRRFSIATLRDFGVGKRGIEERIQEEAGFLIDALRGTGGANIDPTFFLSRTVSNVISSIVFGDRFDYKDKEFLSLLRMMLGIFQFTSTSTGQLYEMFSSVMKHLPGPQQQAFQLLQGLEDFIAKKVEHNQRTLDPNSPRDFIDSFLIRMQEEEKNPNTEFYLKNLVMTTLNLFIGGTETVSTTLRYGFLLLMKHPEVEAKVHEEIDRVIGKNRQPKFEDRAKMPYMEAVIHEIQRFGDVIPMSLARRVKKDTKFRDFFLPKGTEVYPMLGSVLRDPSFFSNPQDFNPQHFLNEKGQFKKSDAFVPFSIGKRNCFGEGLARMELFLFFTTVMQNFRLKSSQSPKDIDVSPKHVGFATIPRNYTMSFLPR
Method: as §1

[1] = plasma, human data for ephylone and 4F-PHP from Wagmann et al., [2019b]
[2] = urine, human data for ephylone and 4F-PHP from Wagmann et al., [2019b]

SMILES | Absolute peak area, HepaRG [25 μM] (HepaRG cells; 24 h) | Number of phase I metabolites detected, HepaRG [25 μM] (HepaRG cells; 25 μM, 24 h) | Number of phase II metabolites detected, HepaRG [25 μM] (HepaRG cells; 25 μM, 24 h) | Absolute peak area, HepaRG [250 μM] (HepaRG cells; 24 h) | Number of phase I metabolites detected, HepaRG [250 μM] (HepaRG cells; 250 μM, 24 h) | Number of phase II metabolites detected, HepaRG [250 μM] (HepaRG cells; 250 μM, 24 h) | Relative number of matches with the four most abundant signals in human plasma, HepaRG [25 μM] (HepaRG cells; [1]) [%] | Relative number of matches with the four most abundant signals in human plasma, HepaRG [250 μM] (HepaRG cells; [1]) [%] | Relative number of matches with the four most abundant signals in human urine, HepaRG [25 μM] (HepaRG cells; [2]) [%] | Relative number of matches with the four most abundant signals in human urine, HepaRG [250 μM] (HepaRG cells; [2]) [%] | Detection of metabolite in incubation with CYP2B6 (CYP2B6) | Detection of metabolite in incubation with CYP1A2 (CYP1A2) | Detection of metabolite in incubation with CYP2A6 (CYP2A6)
COC(=O)C(NC(=O)c1nn(CCCCF)c2ccccc12)C(C)(C)C (centres unmarked) [4F-MDMB-BINACA, methyl 2-[1-(4-fluorobutyl)-1H-indazole-3-carbonyl]amino-3,3-dimethylbutanoate] | 1.28E+08 | 7 | 2 | 5.18E+08 | 12 | 3 | 50 | 75 | 50 | 100 |  |  | 
O=C(O)c1nn(CCCCF)c2ccccc12 [MB1] | 3.34E+04 |  |  | 3.82E+06 |  |  |  |  |  |  | – | – | –
COC(=O)[C@@H](NC(=O)c1n[nH]c2ccccc12)C(C)(C)C [MB4] |  |  |  | 9.55E+06 |  |  |  |  |  |  | – | + | –
CC(C)(C)C(NC(=O)c1nn(CCCCF)c2ccccc12)C(=O)O (centres unmarked) [MB8] | 5.16E+07 |  |  | 1.63E+09 |  |  |  |  |  |  | – | – | –
COC(=O)[C@@H](NC(=O)c1nn(CCCCO)c2ccccc12)C(C)(C)C [MB11] | 9.30E+04 |  |  | 6.93E+06 |  |  |  |  |  |  | – | – | –
COC(=O)[C@@H](NC(=O)c1nn(CCCCF)c2ccccc12)C(C)(C)CO [MB16] |  |  |  |  |  |  |  |  |  |  | – | – | –
